Assay results as given in US12409189B2, “STAUFEN1 agents and associated methods” (University of Utah Research Foundation, priority 2016, dated 2025).
Entries after “also recorded” stand apart in the source; their conditions may differ. d = 2'-deoxy (DNA); r = 2'-OH (RNA)

Key:
Format in all cases: cell-based, human
[1] = test system: autophagic pathway proteins (mTOR, P-mTOR, p62, LC3-II); assay: Western blot of autophagic pathway proteins in SH-SY5Y and ATXN2-Q22/58 knock-in cells; conditions: for autophagic pathway proteins: ATXN2-Q22/58 knock-in cells, RNAi transfection
Protocol: (§1) SH-SY5Y cells were cultured in standard DMEM with 10% FBS and 1X penicillin/streptomycin in 5% CO2. Transfection of STAU1 siRNA or STAU1 ASO was accomplished using Lipofectamine transfection reagent using standard conditions. Cells were harvested 3-5 days post transfection.
Protein extracts were prepared by suspending cell pellets in SDS-PAGE sample buffer (Laemmli sample buffer) followed by boiling for 5 min. Equal amount of the extracts were subjected to Western blot analysis to determine the steady-state levels of proteins using the indicated antibodies. Protein extracts were resolved by SDS-PAGE and transferred to Hybond P membranes (Amersham Bioscience Inc., USA). After blocking with 5% skim milk in 0.1% Tween 20/PBS, the membranes were incubated with primary antibodies in 5% skim milk in 0.1% Tween 20/PBS for 2 hrs at room temperature or overnight at 4° C. After several washes with 0.1% Tween 20/PBS, the membranes were incubated with the corresponding secondary antibodies conjugated with HRP in 5% skim milk in 0.1% Tween 20/PBS for 2 hrs at room temperature. Following three additional washes with 0.1% Tween 20/PBS, signals were detected by using the Immobilon Western Chemiluminescent HRP Substrate (Millipore Inc., USA; cat #WBKLSO100) according to the manufacturer's protocol. […] Secondary antibodies were horse anti-mouse IgG-HRP antibody (Vector laboratories, PI-2000), and goat anti-rabbit IgG-HRP antibody (Vector laboratories, PI-1000).
(§2) For over-expression of recombinant proteins, SH-SY5Y cells were seeded on 100 mm or 6 well dishes and incubated overnight. The cells were then transfected with plasmid DNAs and harvested 48 hrs post-transfection and processed as two aliquots for protein and RNA analyses. For siRNA experiments, cells were transfected with siRNAs using lipofectamine 2000, and lymphoblastoid B cells (1×10^6) were electroporated with siRNAs using the Neon transfection system (Invitrogen Inc., USA) according to the manufacturer's protocol and seeded on 6 well plates.
Preparation of protein lysates and western blot analyses. Cellular extracts were prepared by a single-step lysis method. […] Equal amounts of the extracts were used for western blot analyses. […] Only supernatants were used for western blotting. Protein extracts were resolved by SDS-PAGE and transferred to Hybond P membranes (Amersham Bioscience Inc., USA). After blocking with 5% skim milk in 0.1% Tween 20/PBS, the membranes were processed for immunostaining using corresponding primary and secondary antibodies. Signals were detected by using the Immobilon Western Chemiluminescent HRP Substrate (Millipore Inc., USA; cat #WBKLSO100) according to the manufacturer's protocol. The intensity of proteins was determined by using the ImageJ software analyses system and the relative protein abundances were expressed as ratios to β-actin.

Staufen1 [2] = assay: Western blot of Staufen1 in SH-SY5Y and ATXN2-Q22/58 knock-in cells; conditions: for STAU1 levels, expression relative to actin: SH-SY5Y-ATXN2 [Q22/Q22] cells, ASO at the indicated dose, western blotting
Protocol: as §1
Protein extracts were prepared by suspending cell pellets in SDS-PAGE sample buffer (Laemmli sample buffer) followed by boiling for 5 min. Equal amount of the extracts were subjected to Western blot analysis to determine the steady-state levels of proteins using the indicated antibodies. Protein extracts were resolved by SDS-PAGE and transferred to Hybond P membranes (Amersham Bioscience Inc., USA). After blocking with 5% skim milk in 0.1% Tween 20/PBS, the membranes were incubated with primary antibodies in 5% skim milk in 0.1% Tween 20/PBS for 2 hrs at room temperature or overnight at 4° C. After several washes with 0.1% Tween 20/PBS, the membranes were incubated with the corresponding secondary antibodies conjugated with HRP in 5% skim milk in 0.1% Tween 20/PBS for 2 hrs at room temperature. Following three additional washes with 0.1% Tween 20/PBS, signals were detected by using the Immobilon Western Chemiluminescent HRP Substrate (Millipore Inc., USA; cat #WBKLSO100) according to the manufacturer's protocol. The antibodies used included ATXN2 mAb [(1:3000), BD Biosciences Inc.; cat #611378], rabbit anti-Staufen antibody (Novus biologicals Inc., NBP1-33202), SQSTM1/p62 antibody (Cell signaling, #5114), LC3B Antibody (Novus biologicals Inc., NB100-2220), mTOR antibody (Cell signaling, #2972), Phospho-mTOR (Ser2448) antibody (Cell signaling #2971), β-Actin mAb conjugated with HRP [(1:10,000), Sigma Inc.; cat #A3858]. Secondary antibodies were horse anti-mouse IgG-HRP antibody (Vector laboratories, PI-2000), and goat anti-rabbit IgG-HRP antibody (Vector laboratories, PI-1000).
as §2
(§3) Preparation of protein lysates and western blot analyses. […] Signals were detected by using the Immobilon Western Chemiluminescent HRP Substrate (Millipore Inc., USA; cat #WBKLSO100) according to the manufacturer's protocol. The intensity of proteins was determined by using the ImageJ software analyses system and the relative protein abundances were expressed as ratios to β-actin.

STAU1 = assay: Sodium arsenite-induced stress, STAU1 immunoblotting in fibroblasts
From the text: Cell culture and Transfections. Four normal skin fibroblasts (ATXN2 with CAG22) and five SCA2 patient-derived skin FBs (ATXN2 with CAG repeats; 35, 35, 35, 42, and 45), were maintained in DMEM medium containing 10% fetal bovine serum. Two normal (ATXN2 with CAG22) and three SCA2 patient-derived (ATXN2 with expanded CAG repeats; 40, 46 and 52) Epstein-Barr virus (EBV)-immortalized LBCs were maintained in RPMI medium containing 15% fetal bovine serum. All subjects gave written consent and all procedures were approved by the Institutional Review Board at the University of Utah. The following primary human fibroblasts were obtained from the Coriell Cell Repositories (Camden, NJ, USA): ALS patient (TDP-43G298S mutation)(ND32947), Huntington disease (HD) patient (ND33392) and SCA3 (Machado-Joseph disease, MJD) patient (GM06153). TDP-43G298S, HD, SCA3, and SH-SY5Y cells were maintained in DMEM medium containing 10% fetal bovine serum.
as §3, with “analyses. Cellular extracts were prepared by a single-step lysis method.” for “analyses.”

ATXN2 = assay: Western blot of ATXN2 in ATXN2-Q22/58 KI cells after RNAi
Protocol: as §1
Protein extracts were prepared by suspending cell pellets in SDS-PAGE sample buffer (Laemmli sample buffer) followed by boiling for 5 min. Equal amount of the extracts were subjected to Western blot analysis to determine the steady-state levels of proteins using the indicated antibodies. Protein extracts were resolved by SDS-PAGE and transferred to Hybond P membranes (Amersham Bioscience Inc., USA). […] Following three additional washes with 0.1% Tween 20/PBS, signals were detected by using the Immobilon Western Chemiluminescent HRP Substrate (Millipore Inc., USA; cat #WBKLSO100) according to the manufacturer's protocol. […]
as §3

Staufen1 [3] = assay: Western blot of Staufen1 in normal and SCA2 LB cells and SCA2 fibroblasts after siRNA; conditions: siRNA electroporation, 4 days
From the text: (§4) The siRNAs used in this study were: All Star Negative Control siRNA (Qiagen Inc., USA; Cat #1027280), siATXN2 [Hs_ATXN2_2, (Qiagen Inc., USA; Cat #SI00308196), human siSTAU1: 5′-CCUAUAACUACAACAUGAGdTdT-3′ (SEQ ID NO: 3) and mouse siStau1: 5′-CAACUGUACUACCUUUCCAdTdT-3′ (SEQ ID NO: 31). Staufen1 siRNA oligonucleotides were synthesized by Invitrogen Inc., USA. The oligonucleotides were deprotected and the complementary strands were annealed.
as §2, §3

ATXN2 transcript = assay: qPCR of ATXN2 transcript in LB cells after Staufen1 silencing; conditions: normal or SCA2-LB cells, Staufen1 siRNA
From the text: as §4, §2
(§5) RNA expression analyses by Quantitative RT-PCR. […] Quantitative RT-PCR was performed in QuantStudio 12K (Life Technologies, Inc.; USA) with the Power SYBR Green PCRMaster Mix (Applied Biosystems Inc.; USA). […] The threshold cycle for each sample was chosen from the linear range and converted to a starting quantity by interpolation from a standard curve run on the same plate for each set of primers. […]

PCP2 mRNA = assay: qPCR of PCP2 transcript in LB cells and SCA2 fibroblasts after siRNA; conditions: Staufen1 siRNA
From the text: as §4, §2, §5

Staufen1 [4] = assay: Cycloheximide (CHX)-chase assay, Staufen1 protein stability, western blot
Protocol: (§6) To identify the underlying mechanism of ATXN2 polyQ expansion-mediated Staufen1 abundance, Staufen1 transcript levels were examined in normal and SCA2 fibroblasts. […] To test this, comparative protein stability for Staufen1 was measured by cycloheximide (CHX)-chase assay in normal and SCA2 fibroblasts. Relative Staufen1 levels were analyzed from harvested normal and SCA2 fibroblast extracts. (FIGS. 4B and 4C).
(§7) Preparation of protein lysates and western blot analyses. Cellular extracts were prepared by a single-step lysis method. The harvested cells were suspended in SDS-PAGE sample buffer [Laemmli sample buffer (Bio-Rad Inc.; cat #161-0737)] and then boiled for 5 min. Equal amounts of the extracts were used for western blot analyses. Cerebellar protein extracts were prepared by homogenization of mouse cerebella in extraction buffer [25 mM Tris-HCl pH 7.6, 300 mM NaCl, 0.5% Nonidet P-40, 2 mM EDTA, 2 mM MgCl2, 0.5 M urea and protease inhibitors (Sigma Inc.; cat #P-8340)] followed by centrifugation at 4° C. for 20 min at 14,000 RPM. […] Signals were detected by using the Immobilon Western Chemiluminescent HRP Substrate (Millipore Inc., USA; cat #WBKLSO100) according to the manufacturer's protocol. The intensity of proteins was determined by using the ImageJ software analyses system and the relative protein abundances were expressed as ratios to β-actin.

p21 Waf1/Cip1 = assay: Cycloheximide (CHX)-chase assay, p21 Waf1/Cip1 control, western blot; conditions: 4 hr after CHX treatment (25 μg/ml), both normal and SCA2 fibroblasts
Protocol: as §6, §7

[5] = SH-SY5Y and ATXN2-Q22/58 knock-in cells, Baf dose-wise, 6 h, vs untreated

Compound: CO/C1=C\C(C)=C\[C@@H](C)[C@@H](O)[C@@H](C)C/C(C)=C/C=C/[C@H](OC)[C@@H]([C@@H](C)[C@@H](O)[C@H](C)[C@@]2(O)C[C@@H](O)[C@H](C)[C@@H](C(C)C)O2)OC1=O [Bafilomycin Al, bafilomycin Al, reference compound]
- LC3-II level ([1]; ATXN2-Q22/58 KI cells, Baf treatment): slight elevation of LC3-II
- processed LC3-II and p62 levels [1, 5]: dose-wise increased levels
- Staufen1 levels / clearance (Staufen1 [2]; [5]): dose-wise increased levels; also recorded: lowers Staufen1 clearance

Compound: 5′-CTGGAAAGATAGTCCAGTTG-3′ (listed as DNA, chemistry not given here; listed as Homo sapiens) [STAU1 ASO-B, antisense oligonucleotide targeting Staufen1]
- STAU1 levels, expression relative to actin (Staufen1 [2]): reduced STAU1 levels

Compound: O=[As]O [sodium arsenite]
- STAU1 level in response to arsenite (STAU1; HD and SCA3 patient fibroblasts, 1.0 mM, 0, 3 and 6 hr): early and exaggerated responses; also recorded: exaggerated increases in STAU1 levels
- STAU1 level in response to arsenite (STAU1; normal fibroblasts (implied), only visible after 6 hr treatment): modest STAU1 increase

Compound: 5′-CCUAUAACUACAACAUGAGdTdT-3′ (sense CCUAUAACUACAACAUGAGTT; sugars from the 5' end r19 d2, backbone not given here) [siSTAU1, siRNA directed against human Staufen1, synthesized by Invitrogen]
- ATXN2 steady-state levels (ATXN2; listed as STAU1-RNAi): did not change ATXN2 levels
- ATXN2 steady-state levels (ATXN2; listed as STAU1 siRNA): without affecting ATXN2 steady-state levels
- autophagic pathway proteins ([1]; listed as STAU1 RNAi): restored autophagic pathway proteins
- autophagic pathway proteins ([1]; listed as STAU1 siRNA): restoration of autophagic pathway proteins
- depletion of Staufen1 (Staufen1 [3]; SCA2-LB (ATXN2-Q22/52) cells): ~83%
- silencing of staufen1 (Staufen1 [3]; normal LB cells): ~81%
- ATXN2 transcript levels (ATXN2 transcript): does not show any effect on ATXN2 transcript levels
- PCP2 mRNA level (PCP2 mRNA; SCA2-LB (ATXN2-Q22/52) cells, qPCR): restored PCP2 mRNA level to a level similar to that seen in normal LB cells treated with control siRNA
- PCP2 mRNA levels (PCP2 mRNA; normal LB cells, vs control siRNA): did not show significant alteration of PCP2 mRNA levels

Compound: 5′-TCTCATGTTGTAGTTATAGG-3′ (listed as DNA, chemistry not given here; listed as Homo sapiens) [STAU1 ASO-A, antisense oligonucleotide targeting Staufen1]
- STAU1 levels, expression relative to actin (Staufen1 [2]): reduced STAU1 levels

Compound: C[C@@H]1C[C@@H]([C@H](O)CC2CC(=O)NC(=O)C2)C(=O)[C@@H](C)C1 [CHX, cycloheximide]
- Staufen1 protein expression levels (Staufen1 [4]; SCA2 fibroblasts, CHX treatment): relatively little decrease
- Staufen1 levels (Staufen1 [4]; normal fibroblasts, 4 hr after CHX treatment): reduced
- reduction of p21 Waf1/Cip1 levels (p21 Waf1/Cip1): ~90%
